From US6586441B2, “Adenosine receptor ligands and their use in the treatment of disease” (Hoffman-La Roche Inc., priority 2000, dated 2003)

Each compound was assayed against T1, human adenosine A2A receptor (Homo sapiens, UniProt P29274) (assay: Human adenosine A2A receptor [3H]-SCH-58261 binding assay). Conditions: human A2a receptor, membranes of CHO cells, [3H]-SCH-58261; read-out: pKi (affinity to the human A2a receptor) (converted).
T1 construct: expressed in transfected cells; host or cells: CHO cells, semliki forest virus expression system; membrane preparation
T1 sequence (P29274 whole entry): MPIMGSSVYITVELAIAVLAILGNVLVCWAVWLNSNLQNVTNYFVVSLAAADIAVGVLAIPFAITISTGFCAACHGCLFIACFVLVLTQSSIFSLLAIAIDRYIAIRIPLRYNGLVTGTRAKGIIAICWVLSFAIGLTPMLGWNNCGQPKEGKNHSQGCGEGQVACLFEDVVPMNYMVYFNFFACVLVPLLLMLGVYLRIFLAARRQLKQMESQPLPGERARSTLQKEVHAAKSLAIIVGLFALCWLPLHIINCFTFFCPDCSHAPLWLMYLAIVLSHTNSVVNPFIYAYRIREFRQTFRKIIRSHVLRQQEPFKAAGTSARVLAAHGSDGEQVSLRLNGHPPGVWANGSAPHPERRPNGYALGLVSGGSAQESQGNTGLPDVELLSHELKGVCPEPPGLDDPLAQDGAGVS
Description: The gene encoding human adenosine A2A receptor was recombinantly introduced and expressed in chinese hamster ovary (CHO) cells using the semliki forest virus expression system. Cells were harvested, washed twice by centrifugation, homogenised and again washed by centrifugation. The final washed membrane pellet was suspended in a Tris (50 mM) buffer containing 120 mM NaCl, 5 mM KCl, 2 mM CaCl2 and 10 mM MgCl2 (pH 7.4) (buffer A). The [^3H]-SCH-58261 (Dionisotti et al., 1997, Br. J. Pharmacol. 121, 353; 1 nM) binding assay was carried out in 96-well plates in the presence of 2.5 μg of membrane protein, 0.5 mg of Ysi-poly-1-lysine SPA beads and 0.1 U adenosine deaminase in a final volume of 200 μl of buffer A. Non-specific binding was defined using xanthine amine congener (XAC; […]). Compounds were tested at 10 concentrations from 10 μM-0.3 nM. All assays were conducted in duplicate and repeated at least two times. Assay plates were incubated for 1 hour at room temperature before centrifugation and then bound ligand determined using a Packard Topcount scintillation counter. IC50 values were calculated using a non-linear curve fitting program and Ki values calculated using the Cheng-Prussoff equation.
For `N#Cc1c(NCc2ccccc2N)nc(N)nc1-c1ccco1` [Example 304, 2-Amino-4-(2-amino-benzylamino)-6-furan-2-yl-pyrimidine-5-carbonitrile], the Ki was 3.55 nM.
`N#Cc1c(NCc2ccc(N)cc2)nc(N)nc1-c1ccco1` [Example 305, 2-Amino-4-(4-amino-benzylamino)-6-furan-2-yl-pyrimidine-5-carbonitrile] gave a Ki of 8.91 nM.
`CN(C)c1ccc(CNc2nc(N)nc(-c3ccco3)c2C#N)cc1` [Example 312, 2-Amino-4-(4-dimethylamino-benzylamino)-6-furan-2-yl-pyrimidine-5-carbonitrile] showed a Ki of 9.77 nM.
`N#Cc1c(SCCc2ccccn2)nc(N)nc1-c1ccco1` [Example 313, 2-Amino-4-furan-2—,yl-6-(2-pyridin-2-yl-ethylsulfanyl)-pyrimidine-5-carbonitrile] was tested, and the Ki was 0.832 nM.
Compound `Nc1nc(OCCCc2ccccc2)c(Cl)c(-c2ccco2)n1` [Example 321, 5-Chloro-4-furan-2-yl-6-(3-phenyl-propoxy)-pyrimidin-2-yl-amine] has a Ki of 2.82 nM.
`Nc1nc(OCCc2ccccc2)c(Cl)c(-c2ccco2)n1` [Example 322, 5-Chloro-4-furan-2-yl-6-phenethyloxy-pyrimidin-2-yl-amine] showed a Ki of 9.77 nM.
For `Nc1nc(SCc2ccccc2)c(Cl)c(-c2ccco2)n1` [Example 324, 4-Benzylsulfanyl-5-chloro-6-furan-2-yl-pyrimidin-2-yl-amine], the Ki was 9.12 nM.
Compound `N#Cc1c(NCCNc2ccccn2)nc(N)nc1-c1ccco1` [Example 330, 2-Amino-4-furan-2-yl-6-[2-(pyridin-2-ylamino)-ethylamino]-pyrimidine-5-carbonitrile] has a Ki of 7.94 nM.
For `N#Cc1c(-c2ccco2)nc(N)nc1N1CCc2ccccc2C1` [Example 336, 2-Amino-4-(3,4-dihydro-1H-isoquinolin-2-yl)-6-furan-2-yl-pyrimidine-5-carbonitrile], the Ki was 8.13 nM.
`N#Cc1c(NCc2ccc3c(c2)OCO3)nc(N)nc1-c1ccco1` [Example 337, 2-Amino-4-[(benzo [1,3]dioxol-5-ylmethyl)-amino]-6-furan-2-yl-pyrimidine-5-carbonitrile] gave a Ki of 6.61 nM.
With `N#Cc1c(NCc2cccc(C(F)(F)F)c2)nc(N)nc1-c1ccco1` [Example 346, 2-Amino-4-furan-2-yl-6-(3-trifluoromethyl-benzylamino)-pyrimidine-5-carbonitrile] the Ki was 2.4 nM.
`Cc1ccc(CNc2nc(N)nc(-c3ccco3)c2C#N)cc1C` [Example 347, 2-Amino-4-(3,4-dimethyl-benzylamino)-6-furan-2-yl-pyrimidine-5-carbonitrile] gave a Ki of 1.66 nM.
`Cc1ccnc(CNc2nc(N)nc(-c3ccco3)c2C#N)c1` [Example 348, 2-Amino-4-furan-2-yl-6-[(4-methyl-pyridin-2-ylmethyl)-amino]-pyrimidine-5-carbonitrile] was tested, and the Ki was 2.09 nM.
`Nc1nc(SCCc2ccccn2)c(I)c(-c2ccco2)n1` [Example 352, 4-Furan-2-yl-5-iodo-6-(2-pyridin-2-yl-ethylsulfanyl)-pyrimidin-2-yl-amine] gave a Ki of 5.13 nM.
Work on `Nc1nc(SCCc2ccccn2)c(Br)c(-c2ccco2)n1` [Example 353, 5-Bromo-4-furan-2-yl-6-(2-pyridin-2-yl-ethylsulfanyl)-pyrimidin-2-yl-amine] yielded a Ki of 3.8 nM.
`Nc1nc(SCCc2ccccn2)c(Cl)c(-c2ccco2)n1` [Example 354, 5-Chloro-4-furan-2-yl-6-(2-pyridin-2-yl-ethylsulfanyl)-pyrimidin-2-yl-amine] was tested, and the Ki was 4.9 nM.
With `N#Cc1c(OCc2ccccn2)cc(N)nc1-c1ccco1` [Example 355, 6-Amino-2-furan-2-yl-4-(pyridin-2-yl-methoxy)-nicotinonitrile] the Ki was 3.02 nM.
Work on `N#Cc1c(SCCc2ccccn2)cc(N)nc1-c1ccco1` [Example 356, 6-Amino-2-furan-2-yl-4-(2-pyridin-2-yl-ethylsulfanyl)-nicotinonitrile] yielded a Ki of 0.912 nM.
`N#Cc1c(NCc2ccc(C(F)(F)F)cc2)cc(N)nc1-c1ccco1` [Example 357] showed a Ki of 9.12 nM.
`N#Cc1c(NCc2ccccc2Br)nc(N)nc1-c1ccco1` [Example 359, 2-Amino-4-(2-bromo-benzylamino)-6-furan-2-yl-pyrimidine-5-carbonitrile] was tested, and the Ki was 0.631 nM.
`N#Cc1c(NCc2ccccc2Cl)nc(N)nc1-c1ccco1` [Example 360, 2-Amino-4-(2-chloro-benzylamino)-6-furan-2-yl-pyrimidine-5-carbonitrile] showed a Ki of 0.589 nM.
Work on `Cc1cccnc1COc1nc(N)nc(-c2ccco2)c1C#N` [Example 361, 2-Amino-4-furan-2-yl-6-(3-methyl-pyridin-2-yl-methoxy)-pyrimidine-5-carbonitrile] yielded a Ki of 0.603 nM.
`Cc1ccc(COc2nc(N)nc(-c3ccco3)c2C#N)nc1` [Example 362, 2-Amino-4-furan-2-yl-6-(5-methyl-pyridin-2-yl-methoxy)-pyrimidine-5-carbonitrile] was tested, and the Ki was 2.63 nM.
With `Cc1ccc(CNc2nc(N)nc(-c3ccco3)c2C#N)nc1` [Example 363, 2-Amino-4-furan-2-yl-6-[(5-methyl-pyridin-2-yl-methyl)-amino]-pyrimidine-5-carbonitrile] the Ki was 3.24 nM.
`N#Cc1c(NCc2ccc3ccccc3n2)cc(N)nc1-c1ccco1` [Example 364, 6-Amino-2-furan-2-yl-4-[(quinolin-2-ylmethyl)-amino]-nicotinonitrile] was tested, and the Ki was 3.89 nM.
Work on `N#Cc1c(OCc2cc3ccccc3cn2)nc(N)nc1-c1ccco1` [Example 366, 2-Amino-4-furan-2-yl-6-(isoguinolin-3-yl-methoxy)-pyrimidine-5-carbonitrile] yielded a Ki of 1.82 nM.
For `N#Cc1c(NCc2cc3ccccc3cn2)nc(N)nc1-c1ccco1` [Example 367, 2-Amino-4-furan-2-yl-6-[(isoguinolin-3-yl-methyl)-amino]-pyrimidine-5-carbonitrile], the Ki was 2.29 nM.
Compound `Cc1cccnc1CNc1nc(N)nc(-c2ccco2)c1C#N` [Example 368, 2-Amino-4-furan-2-yl-6-[(3-methyl-pyridin-2-yl-methyl)-amino]-pyrimidine-5-carbonitrile] has a Ki of 1.86 nM.
For `N#Cc1c(SCCc2ccccn2)nc(N)nc1-c1cccs1` [Example 370], the Ki was 8.91 nM.
In the case of `N#Cc1c(NCc2ccccn2)cc(N)nc1-c1ccco1` [Example 371, 6-Amino-2-furan-2-yl-4-[(pyridin-2-yl-methyl)-amino]-nicotinonitrile], the Ki was 8.13 nM.
Work on `Cc1ccnc(COc2nc(N)nc(-c3ccco3)c2C#N)c1` [Example 373, 2-Amino-4-furan-2-yl-6-(4-methyl-pyridin-2-yl-methoxy)-pyrimidine-5-carbonitrile] yielded a Ki of 5.13 nM.
For `C=Cc1ccc(CNc2nc(N)nc(-c3ccco3)c2C#N)cc1` [Example 374, 2-Amino-4-furan-2-yl-6-(4-vinyl-benzylamino)-pyrimidine-5-carbonitrile], the Ki was 9.33 nM.
`Cc1cccnc1CNc1cc(N)nc(-c2ccco2)c1C#N` [Example 376, 6-Amino-2-furan-2-yl-4-[(3-methyl-pyridin-2-yl-methyl)-amino]-nicotinonitrile] showed a Ki of 4.57 nM.
With `Cc1ccc(CNc2cc(N)nc(-c3ccco3)c2C#N)nc1` [Example 377, 6-Amino-2-furan-2-yl-4-[(5-methyl-pyridin-2-yl-methyl)-amino]-nicotinonitrile] the Ki was 7.76 nM.
`Cc1ccc(COc2nc(N)nc(-c3ccco3)c2C#N)cn1` [Example 381, 2-Amino-4-furan-2-yl-6-(6-methyl-pyridin-3-yl-methoxy)-pyrimidine-5-carbonitrile] gave a Ki of 3.47 nM.
`Cc1cccnc1COc1cc(N)nc(-c2ccco2)c1C#N` [Example 383, 6-Amino-2-furan-2-yl-4-(3-methyl-pyridin-2-yl-methoxy)-nicotinonitrile] was tested, and the Ki was 1.91 nM.
For `N#Cc1c(OCCc2ccccn2)cc(N)nc1-c1ccco1` [Example 384, 6-Amino-2-furan-2-yl-4-(2-pyridin-2-yl-ethoxy)-nicotinonitrile], the Ki was 3.02 nM.
For `N#Cc1c(N)nc(SCc2ccccc2)c(C#N)c1-c1cccs1` [Example 389, 2-Amino-6-benzylsulfanyl-4-thiophen-2-yl-pyridine-3.5-dicarbonitrile], the Ki was 8.32 nM.
Work on `Cc1cnc(COc2nc(N)nc(-c3ccco3)c2C#N)c(C)c1` [Example 401, 2-Amino-4-(3,5-dimethyl-pyridin-2-ylmethoxy)-6-furan-2-yl-pyrimidine-5-carbonitrile] yielded a Ki of 0.692 nM.
`Cc1cnc(CNc2nc(N)nc(-c3ccco3)c2C#N)c(C)c1` [Example 402, 2-Amino-4-[(3,5-dimethyl-pyridin-2-ylmethyl)-amino]-6-furan-2-yl-pyrimidine-5-carbonitrile] gave a Ki of 2.14 nM.
Work on `N#Cc1c(OCCc2ccccn2)nc(N)nc1-c1cccc(F)c1` [Example 405, 2-Amino-4-(3-fluoro-phenyl)-6-(2-pyridin-2-yl-ethoxy)-pyrimidine-5-carbonitrile] yielded a Ki of 7.41 nM.
`Cc1coc(-c2nc(N)nc(SCCc3ccccn3)c2C#N)c1` [Example 422, 2-Amino-4-(4-methyl-furan-2-yl)-6-(2-pyridin-2-yl-ethylsulfanyl)-pyrimidine-5-carbonitrile] gave a Ki of 1.35 nM.
For `Cc1coc(-c2nc(N)nc(OCCc3ccccn3)c2C#N)c1` [Example 423, 2-Amino-4-(4-methyl-furan-2-yl)-6-(2-pyridin-2-yl-ethoxy)-pyrimidine-5-carbonitrile], the Ki was 3.02 nM.
